From patent US9206132B2, “Use of a novel aminopyridine derivative to prevent or treat cancer” (Medicinal Bioconvergence Research Center, priority 2012, dated 2015)

Tests used:
AIMP2-DX2 [1] = experiment: AIMP2-DX2 luciferase assay in pGL-DX-2 transfected A549 lung cancer cells; settings: A549 transfected with pGL-DX-2, cultured 24 hours, 4 hours treatment, lower = more inhibition, N.C (DMSO) 20089
Experimental: (§1) After 24 hours in culture, transfected lung cancer cells were treated with the compounds of the library. 4 hours later, luciferase activity was measured with a luminometer using a luciferase assay kit according to a manufacturer protocol (Promega, US).
(§2) Lung cancer cell lines A549 and H460 were transfected with pGL-DX-2, cultured for 24 hours, and treated with the newly synthesized compounds. After further culturing for 4 hours, luciferase activity was measured.

AIMP2-DX2 [2] = experiment: AIMP2-DX2 luciferase assay in pGL2-DX2 transfected H460 lung cancer cells; settings: H460 transfected with pGL-DX-2, cultured 24 hours, 4 hours treatment, lower = more inhibition, N.C (DMSO) 8627
Experimental: as §1, §2

Structure (SMILES) | AIMP2-DX2 Activity in A549 cells (AIMP2-DX2 [1]) | AIMP2-DX2 Activity in H460 cells (AIMP2-DX2 [2])
CCOC(=O)CC(=O)Nc1nc(C)ccc1C [No. 4, ethyl 3-[(3,6-dimethylpyridin-2-yl)amino]-3-oxopropanoate] | 18252 | 4914
CCOC(=O)C(C)C(=O)Nc1ccc(Cl)cn1 (stereo not shown) [No. 1, ethyl 3-[(5-chloropyridin-2-yl)amino]-2-methyl-3-oxopropanoate] | 5295 | 7668
CCOC(=O)CC(=O)Nc1ccc(Cl)cn1 [No. 8, ethyl 3-[(5-chloropyridin-2-yl)amino]-3-oxopropanoate] | 8045 | 6348
CCOC(=O)C(C)C(=O)Nc1cnc2ccccc2c1 (stereo not shown) [No. 6, ethyl 2-methyl-3-oxo-3-(quinolin-3-ylamino)propanoate] | 6011 | 5083
CCOC(=O)CC(=O)Nc1cc(O)ccn1 [No. 5, ethyl 3-[(4-hydroxypyridin-2-yl)amino]-3-oxopropanoate] | 5721 | 4984
CCOC(=O)CC(=O)Nc1cnc2ccccc2c1 [No. 3, ethyl 3-oxo-3-(quinolin-3-ylamino)propanoate] | 17967 | 5447
CCOC(=O)CC(=O)Nc1cccc(C)n1 [No. 2, ethyl 3-[(6-methylpyridin-2-yl)amino]-3-oxopropanoate] | 8070 | 7740
CCOC(=O)C(C)C(=O)Nc1cccc(C)n1 (stereo not shown) [No. 7, ethyl 2-methyl-3-[(6-methylpyridin-2-yl)amino]-3-oxopropanoate] | 6568 | 6082
